Laboratory results taken from ChEMBL document CHEMBL6074624, “FDA-approved small molecule kinase inhibitors for cancer treatment (2001-2015): Medical indication, structural optimization, and binding mode Part I” (Bioorg Med Chem, 2024).

Assays:
[1] = target: Vascular endothelial growth factor receptor 1 (Homo sapiens, UniProt P17948); experiment: Inhibition of VEGFR-1 (unknown origin)
[2] = target: Proto-oncogene tyrosine-protein kinase Src (Homo sapiens, UniProt P12931)
[3] = Volume of distribution at steady state in Sprague-Dawley rat at 10 mg/kg, iv by LC-MS/MS analysis; type: ADME, organism-based; conditions: in vivo, read-out: Vdss
[4] = Clearance in Sprague-Dawley rat at 10 mg/kg, iv by LC-MS/MS analysis; type: ADME, organism-based; conditions: in vivo
[5] = Oral bioavailability in Sprague-Dawley rat at 10 mg/kg by LC-MS analysis; type: ADME, organism-based; conditions: in vivo
[6] = target: Vascular endothelial growth factor receptor 2 (Homo sapiens, UniProt P35968); experiment: Binding affinity to VEGFR-2 (unknown origin) assessed as inhibition constant
Sequence of Vascular endothelial growth factor receptor 2 (P35968 whole entry): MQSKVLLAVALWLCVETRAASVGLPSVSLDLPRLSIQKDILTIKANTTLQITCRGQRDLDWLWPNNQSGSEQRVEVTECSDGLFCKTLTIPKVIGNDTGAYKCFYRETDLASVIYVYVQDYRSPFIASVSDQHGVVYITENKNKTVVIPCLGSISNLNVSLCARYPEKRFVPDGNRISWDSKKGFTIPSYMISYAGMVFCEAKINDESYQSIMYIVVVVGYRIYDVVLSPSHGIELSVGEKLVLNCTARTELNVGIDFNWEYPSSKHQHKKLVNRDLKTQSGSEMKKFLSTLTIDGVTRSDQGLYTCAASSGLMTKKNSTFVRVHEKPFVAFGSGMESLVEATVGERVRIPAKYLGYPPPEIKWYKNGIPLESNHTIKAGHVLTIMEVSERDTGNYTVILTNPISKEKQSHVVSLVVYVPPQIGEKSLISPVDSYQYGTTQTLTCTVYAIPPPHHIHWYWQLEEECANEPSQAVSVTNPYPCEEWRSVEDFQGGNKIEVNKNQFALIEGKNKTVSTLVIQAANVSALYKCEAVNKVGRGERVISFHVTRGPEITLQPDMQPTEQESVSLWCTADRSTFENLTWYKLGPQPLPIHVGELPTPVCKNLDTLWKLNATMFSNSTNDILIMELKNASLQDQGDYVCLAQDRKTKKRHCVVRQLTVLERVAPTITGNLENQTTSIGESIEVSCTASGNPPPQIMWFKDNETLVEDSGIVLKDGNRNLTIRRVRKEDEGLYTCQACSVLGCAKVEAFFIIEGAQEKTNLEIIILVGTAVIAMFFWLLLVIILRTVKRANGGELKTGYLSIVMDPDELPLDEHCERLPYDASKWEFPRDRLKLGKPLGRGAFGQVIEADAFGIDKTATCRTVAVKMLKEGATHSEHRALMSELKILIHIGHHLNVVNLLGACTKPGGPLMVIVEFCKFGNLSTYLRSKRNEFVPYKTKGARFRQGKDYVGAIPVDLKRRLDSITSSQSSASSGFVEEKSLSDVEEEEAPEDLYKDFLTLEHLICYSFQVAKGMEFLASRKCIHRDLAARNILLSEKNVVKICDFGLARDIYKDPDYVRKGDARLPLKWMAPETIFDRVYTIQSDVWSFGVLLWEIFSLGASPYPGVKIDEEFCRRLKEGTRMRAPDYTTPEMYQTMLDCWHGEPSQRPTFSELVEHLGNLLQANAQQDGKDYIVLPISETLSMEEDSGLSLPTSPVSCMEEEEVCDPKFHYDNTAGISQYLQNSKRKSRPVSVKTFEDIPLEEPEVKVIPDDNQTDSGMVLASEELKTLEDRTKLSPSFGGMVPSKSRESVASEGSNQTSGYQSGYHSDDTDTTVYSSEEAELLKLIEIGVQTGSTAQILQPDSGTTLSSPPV

[7] = target: Tyrosine-protein kinase Lck (Homo sapiens, UniProt P06239); experiment: Inhibition of human LCK
Sequence of Tyrosine-protein kinase Lck (P06239 whole entry): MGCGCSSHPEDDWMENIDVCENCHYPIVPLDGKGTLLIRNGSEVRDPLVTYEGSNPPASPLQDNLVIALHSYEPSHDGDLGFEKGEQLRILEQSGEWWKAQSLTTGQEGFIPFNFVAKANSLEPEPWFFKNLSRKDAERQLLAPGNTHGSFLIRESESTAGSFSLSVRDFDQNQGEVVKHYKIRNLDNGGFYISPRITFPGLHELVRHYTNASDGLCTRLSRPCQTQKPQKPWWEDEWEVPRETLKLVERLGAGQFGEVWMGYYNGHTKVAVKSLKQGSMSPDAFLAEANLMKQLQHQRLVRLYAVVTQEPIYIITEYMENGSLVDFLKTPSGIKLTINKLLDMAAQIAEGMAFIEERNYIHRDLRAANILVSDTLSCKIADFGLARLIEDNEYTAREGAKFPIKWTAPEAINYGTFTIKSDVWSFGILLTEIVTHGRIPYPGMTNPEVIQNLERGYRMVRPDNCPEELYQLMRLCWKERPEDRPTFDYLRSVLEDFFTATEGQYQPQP

NCI-H1975 [8] = experiment: Antiproliferative activity against human NCI-H1975 cells assessed as reduction in cell viability after 24 hrs by MTT assay; type: functional, cell-based; conditions: NCI-H1975, 24 h
PC-9 = experiment: Antiproliferative activity against human PC-9 cells assessed as reduction in cell growth incubated for 72 hrs by MTT assay; type: functional, cell-based; conditions: PC-9, 72 h
NCI-H1975 [9] = experiment: Antitumor activity against human NCI-H1975 cells xenografted in female nude mouse assessed as tumor growth inhibition at 20 mg/kg, po adminstered once daily for 25 days relative to control; type: functional; conditions: NCI-H1975, 600 h, time 25 day, read-out: TGI
[10] = Cytotoxicity against HUVEC cells assessed as reduction in cell viability after 72 hrs by CellTiter-Glo assay; type: toxicity, cell-based; conditions: human
[11] = Inhibition of PDGFR (unknown origin) in NIH3T3 cells; type: cell-based, Homo sapiens
[12] = target: Cyclin-dependent kinase 2 (Homo sapiens, UniProt P24941); experiment: Inhibition of CDK2 (unknown origin)
ACHN = experiment: Antiproliferative activity against human ACHN cells assessed as reduction in cell viability measured after 48 hrs by SRB assay; type: functional, cell-based
HT-29 = experiment: Antiproliferative activity against human HT-29 cells assessed as reduction in cell viability after 72 hrs by MTS assay; type: functional, cell-based; conditions: HT-29, 72 h
[13] = Half life in mouse at 10 mg/kg, po by LC-MS/MS analysis; type: ADME, organism-based; conditions: in vivo
A549 = experiment: cells; conditions: Homo sapiens, A549, 72 h
SK-MEL-28 = experiment: Antiproliferative activity against human SK-MEL-28 cells assessed as reduction in cell growth after 3 days by MTT assay; type: functional, cell-based; conditions: SK-MEL-28, 72 h
KB = experiment: cells; conditions: Homo sapiens, 72 h
[14] = target: Fibroblast growth factor receptor 1 (Homo sapiens, UniProt P11362); experiment: Inhibition of FGFR1 (unknown origin)
Sequence of Fibroblast growth factor receptor 1 (P11362 whole entry): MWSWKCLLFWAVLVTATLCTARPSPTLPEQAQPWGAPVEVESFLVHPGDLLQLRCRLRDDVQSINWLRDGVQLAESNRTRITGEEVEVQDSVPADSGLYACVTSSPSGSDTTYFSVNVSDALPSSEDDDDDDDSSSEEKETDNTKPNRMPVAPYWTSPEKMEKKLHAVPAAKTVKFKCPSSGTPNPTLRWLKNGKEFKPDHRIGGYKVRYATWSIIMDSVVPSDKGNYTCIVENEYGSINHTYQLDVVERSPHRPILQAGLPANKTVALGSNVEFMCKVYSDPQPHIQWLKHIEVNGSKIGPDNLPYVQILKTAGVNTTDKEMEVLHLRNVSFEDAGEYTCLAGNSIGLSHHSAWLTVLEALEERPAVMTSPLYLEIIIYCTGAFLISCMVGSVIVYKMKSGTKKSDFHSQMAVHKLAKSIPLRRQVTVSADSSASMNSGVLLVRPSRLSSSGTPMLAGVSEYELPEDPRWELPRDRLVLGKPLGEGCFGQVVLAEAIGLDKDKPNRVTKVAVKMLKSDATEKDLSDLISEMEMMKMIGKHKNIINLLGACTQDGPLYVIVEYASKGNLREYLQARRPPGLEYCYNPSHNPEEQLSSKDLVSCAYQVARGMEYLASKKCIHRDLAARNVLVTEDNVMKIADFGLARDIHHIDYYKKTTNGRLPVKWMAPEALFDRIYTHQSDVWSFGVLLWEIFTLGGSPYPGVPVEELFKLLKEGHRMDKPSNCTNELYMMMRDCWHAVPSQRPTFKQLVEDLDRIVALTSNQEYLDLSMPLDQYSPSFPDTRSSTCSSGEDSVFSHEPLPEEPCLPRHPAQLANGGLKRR

Sequence of Proto-oncogene tyrosine-protein kinase Src (P12931 2-536 limits assumed): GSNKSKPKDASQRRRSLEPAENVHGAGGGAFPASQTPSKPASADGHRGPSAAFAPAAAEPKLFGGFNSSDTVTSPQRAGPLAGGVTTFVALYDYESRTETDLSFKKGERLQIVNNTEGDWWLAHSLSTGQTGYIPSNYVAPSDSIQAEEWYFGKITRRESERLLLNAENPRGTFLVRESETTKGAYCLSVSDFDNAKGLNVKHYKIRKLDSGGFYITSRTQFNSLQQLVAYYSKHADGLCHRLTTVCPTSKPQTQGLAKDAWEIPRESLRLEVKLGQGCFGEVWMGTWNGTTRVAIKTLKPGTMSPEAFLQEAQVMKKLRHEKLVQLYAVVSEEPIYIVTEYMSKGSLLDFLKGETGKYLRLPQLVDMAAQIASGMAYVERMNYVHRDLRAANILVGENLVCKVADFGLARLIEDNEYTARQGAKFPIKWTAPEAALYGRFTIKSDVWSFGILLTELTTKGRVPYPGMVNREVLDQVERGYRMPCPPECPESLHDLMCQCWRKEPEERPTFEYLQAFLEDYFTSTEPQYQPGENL
Sequence of Vascular endothelial growth factor receptor 1 (P17948 whole entry): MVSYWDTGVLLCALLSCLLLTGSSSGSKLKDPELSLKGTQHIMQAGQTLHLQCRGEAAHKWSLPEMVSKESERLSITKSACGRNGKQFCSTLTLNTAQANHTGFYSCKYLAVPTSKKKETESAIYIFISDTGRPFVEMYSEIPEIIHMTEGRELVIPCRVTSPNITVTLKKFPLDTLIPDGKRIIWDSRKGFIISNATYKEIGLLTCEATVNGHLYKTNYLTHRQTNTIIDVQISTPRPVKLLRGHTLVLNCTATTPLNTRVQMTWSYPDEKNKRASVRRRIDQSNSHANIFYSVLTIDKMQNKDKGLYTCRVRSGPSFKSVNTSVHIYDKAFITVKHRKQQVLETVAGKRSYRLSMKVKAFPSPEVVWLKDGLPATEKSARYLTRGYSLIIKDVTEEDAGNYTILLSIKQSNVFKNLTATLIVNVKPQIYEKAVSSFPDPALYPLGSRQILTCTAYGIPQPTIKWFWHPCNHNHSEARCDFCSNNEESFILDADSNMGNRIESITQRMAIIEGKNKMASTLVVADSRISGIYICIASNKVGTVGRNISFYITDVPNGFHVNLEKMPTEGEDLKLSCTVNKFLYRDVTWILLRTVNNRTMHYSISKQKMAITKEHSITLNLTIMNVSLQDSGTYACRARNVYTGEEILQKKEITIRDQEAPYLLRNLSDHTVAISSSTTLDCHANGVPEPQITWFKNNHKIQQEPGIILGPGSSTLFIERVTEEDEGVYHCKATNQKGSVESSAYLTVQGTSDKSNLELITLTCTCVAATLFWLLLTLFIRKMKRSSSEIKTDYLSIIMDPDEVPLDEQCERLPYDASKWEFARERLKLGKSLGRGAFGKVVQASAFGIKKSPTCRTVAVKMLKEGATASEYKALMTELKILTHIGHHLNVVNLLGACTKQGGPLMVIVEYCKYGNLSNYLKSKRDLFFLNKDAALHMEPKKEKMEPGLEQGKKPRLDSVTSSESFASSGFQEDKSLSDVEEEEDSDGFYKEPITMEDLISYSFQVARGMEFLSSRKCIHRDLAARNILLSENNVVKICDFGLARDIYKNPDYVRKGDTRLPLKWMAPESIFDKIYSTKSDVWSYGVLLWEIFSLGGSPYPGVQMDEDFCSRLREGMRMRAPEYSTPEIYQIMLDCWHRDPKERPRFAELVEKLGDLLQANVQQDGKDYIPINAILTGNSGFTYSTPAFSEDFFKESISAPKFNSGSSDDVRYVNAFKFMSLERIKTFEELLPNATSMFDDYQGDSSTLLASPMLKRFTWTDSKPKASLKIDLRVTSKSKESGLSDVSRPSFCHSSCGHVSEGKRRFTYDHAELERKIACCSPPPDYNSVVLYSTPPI

## COc1cc2nccc(Oc3ccc(NC(=O)NC4CC4)c(Cl)c3)c2cc1C(N)=O [LENVATINIB]
[1]
  IC50: 3.4 nM

## Cc1ccc(NC(=O)c2cc(C(F)(F)F)ccn2)cc1/C=C/n1cnc2c(NC3CC3)ncnc21
[2]
  IC50: 14100 nM

## Cc1nc(Nc2ncc(C(=O)Nc3c(C)cccc3Cl)s2)cc(N2CCN(CCO)CC2)n1 [DASATINIB ANHYDROUS]
[3]
  Vd: 6.3 L/kg
[4]
  clearance: 26.4 mL/min/kg
[5]
  bioavailability: 27%

## COc1cc(/C=C/c2cc(/C=C/c3ccc(O)c(OC)c3)[nH]n2)ccc1O [CURCUMIN PYRAZOLE]
[6]
  Ki: 5100 nM

## Cc1cccc(Cl)c1NC(=O)c1ccc2nc(Nc3cccc(NCCO)n3)sc2c1
[7]
  IC50: 500 nM

## C=CC(=O)Nc1cccc(Nc2ncc(Cl)c(-c3c[nH]c4ccccc34)n2)c1
NCI-H1975 [8]
  IC50: 80 nM
PC-9
  IC50: 20 nM

## Cc1ccc(NC(=O)c2cc(C(F)(F)F)ccn2)cc1C#Cn1cnc2c(NC3CC3)ncnc21
[2]
  IC50: 524 nM

## CN(C)C/C=C/C(=O)Nc1cc2c(Nc3ccc(F)c(Cl)c3)ncnc2cc1O[C@H]1CCOC1 [AFATINIB]
NCI-H1975 [9]
  inhibition in vivo at 20 mg/kg: 12%

## Cc1ccc2cc(NC(=O)c3ccccc3Sc3ccc4c(/C=C/c5ccccn5)n[nH]c4c3)ccc2n1
[10]
  IC50 at 72 h: 0.8 nM

## CCN(CC)CCNC(=O)c1c(C)[nH]c(/C=C2\C(=O)Nc3ccccc32)c1C
[11]
  IC50: 100 nM

## C(=C\c1n[nH]c2cc(Sc3ccccc3)ccc12)/c1ccccc1
[6]
  Ki: 4.5 nM

## CC(=O)c1c(C)c2cnc(Nc3ccc(N4CCNCC4)cc3)nc2n(C2CCCC2)c1=O
[12]
  IC50: 11 nM

## Cn1c(=O)cc(Nc2ccc(Br)cc2F)c2c(=O)n(C3CC3)c(=O)n(-c3ccccc3)c21
ACHN
  IC50: 325 nM
HT-29
  IC50: 15 nM

## COc1cc2ncnc(Nc3ccc(F)c(Cl)c3)c2cc1OC
[13]
  half-life: 3 h

## CC(Oc1cc(-c2cnn(C3CCNCC3)c2)cnc1N)c1c(Cl)ccc(F)c1Cl (stereo unspecified)
A549
  IC50: 20 nM

## CC(=O)N1CCN(c2ccc(Nc3nccc(-c4sc(C(C)C)nc4-c4cccc(NS(=O)(=O)c5ccccc5)c4)n3)cn2)CC1
SK-MEL-28
  EC50: 24 nM

## COc1cc2ncnc(Nc3cccc(C)c3)c2cc1OC
[13]
  half-life: 1 h
KB
  IC50: 50 nM

## CCOC(=O)c1c(C)c2cnc(Nc3ccc(N4CCNCC4)cc3)nc2n(C2CCCC2)c1=O
[12]
  IC50: > 5000 nM

## Cn1c(Nc2ccccc2)c2c(=O)n(C3CC3)c(=O)n(-c3ccc(Br)cc3)c2cc1=O
ACHN
  IC50: < 3000 nM
HT-29
  IC50: > 1000 nM

## COc1cc(/C=C/c2n[nH]c3ccccc23)ccc1O
[14]
  IC50: 1900 nM
